# Measured values from patent publication US20020077329A1, “EP4 receptor inhibitors to treat rheumatoid arthritis” (priority 2000, published 2002).
# Marks after values point to notes of the source that are not given here.
# Columns and labels:
# [1] = tested on: rats with adjuvant-induced arthritis; test: Paw edema of adjuvant arthritis (hindpaw volume, hydroplethysmometer); assay type: in vivo, male, Sprague-Dawley rats; settings: for % inhibition contralateral paw / % inhibition ipsilateral paw: paw edema on day 14, perorally day 0 to day 14, compound A and B 60 mg/kg bid, piroxicam 3 mg/kg qd, rofecoxib 1.5 mg/kg bid, n=8
# Protocol: (§1) Arthritis was induced in male, Sprague-Dawley rats (115-145 g, Japan SLC Inc., Shizuoka, Japan) on Day 0 by an injection of 300 μg of M. Tuberculosis H37 RA (Difco Laboratories Inc., Detroit, Mich.) in 100 μl of liquid paraffin (Wako Pure Chemical Industries, Ltd., Osaka, Japan) into the right hind footpad (Neuroscience 78: 843-850, 1997) on Day 0.
# (§2) EP4 antagonists included within Formula I as described above (compound A and B, 60 mg/kg, bid), piroxicam (Feldene®, 3 mg/kg, qd), rofecoxib (Vioxx®, 1.5 mg/kg, bid), and control vehicle were each suspended in 0.1% methylcellulose (MC) and perorally administered separately in five groups of rats from day 0 to day 14 in a volume of 1 ml per 100 g body weight.
# Hindpaw volume was measured by an hydroplethysmometer (Ugo Basile, Comerio, Italy) on Day 0, immediately before adjuvant injection, and on Days 1, 4, 7, 11 and 14 after injection. Paw swelling (%) was calculated as follows (Agents and Actions 34: 63-65, 1991):
# swelling (%)={Day X volume (ml)−Day 0 volume (ml)}/Day 0 volume (ml)×100.
# [2] = tested on: rats with adjuvant-induced arthritis; test: Arthritic score in adjuvant arthritis (sum of the score for all four limbs); assay type: in vivo, male, Sprague-Dawley rats; settings: day 14; perorally day 0 to day 14; compound A and B 60 mg/kg bid, piroxicam 3 mg/kg qd, rofecoxib 1.5 mg/kg bid; n=8
# Protocol: as §1, §2
# On Day 14, the arthritic score of each paw was evaluated as described below. The total arthritic score for each animal was the sum of the score for all four limbs (Agents and Actions 27: 356-358, 1989). […]
smiles,measurement,setting,value
CCc1nc2cc(C(F)(F)F)c(Cl)cc2n1-c1ccc(CCN(C(=O)O)S(=O)(=O)c2ccc(C)cn2)cc1.Cl,melting point,,205.8 °C
"CCc1nc2c(C)nc(C)cc2n1-c1ccc(CCOC(=O)NS(=O)(=O)c2ccc(C)cc2)cc1 [Example 227, 2-[4-(2-ethyl-4,6-dimethyl-1H-imidazo[4,5-c]pyridin-1-yl)phenyl]ethyl (4-methylphenyl)sulfonylcarbamate]",melting point,,158 °C
"CCc1nc2c(C)nc(C)nc2n1-c1ccc(CCOC(=O)NS(=O)(=O)c2ccc(C)cc2)cc1 [Example 228, 2-[4-(8-ethyl-2,6-dimethyl-9H-purin-9-yl)phenyl]ethyl (4-methylphenyl)sulfonylcarbamate]",melting point,,162 °C
"CCc1nc2cc(C(F)(F)F)c(Cl)cc2n1-c1ccc(C[C@H](C)OC(=O)NS(=O)(=O)c2ccc(C)cc2)cc1 [Example 250, (1S)-2-{4-[6-chloro-2-ethyl-5-(trifluoromethyl)-1H-benzimidazol-1-yl]phenyl}-1-methylethyl (4-methylphenyl)sulfonylcarbamate]",melting point,,200.3 °C
"CCc1nc2cc(C(C)=O)ccc2n1-c1ccc(CCOC(=O)NS(=O)(=O)c2ccc(C)cc2)cc1 [Example 332, 2-[4-(5-acetyl-2-ethyl-1H-benzimidazol-1-yl)phenyl]ethyl (4-methylphenyl)sulfonylcarbamate]",melting point,,188 to 190 °C
"CN1C(C(=O)Nc2ccccn2)=C(O)c2ccccc2S1(=O)=O [Piroxicam, piroxicam]",% inhibition contralateral paw,[1],96.2* %
same,% inhibition ipsilateral paw,[1],50.8** %
same,% inhibition (arthritic score),[2],26.7** %
"CS(=O)(=O)c1ccc(C2=C(c3ccccc3)C(=O)OC2)cc1 [Rofecoxib, rofecoxib]",edema formation in the ipsilateral paws (result in words),"[1]; during the entire experimental period (day 0 to day 14), versus disease group untreated with compound",weaker activity
same,% inhibition contralateral paw,[1],25.6%
same,% inhibition ipsilateral paw,[1],37.1* %
same,% inhibition (arthritic score),[2],18.5** %
